{
  "source": "patent US20120197059A1",
  "about": "“UBIQUITIN INTERACTING MOTIF PEPTIDES AS CANCER THERAPEUTICS” (priority 2011, published 2012)",
  "key": {"VEGFR-2": {"system": "VEGFR-2", "test": "VEGF signaling assay with Dynasore, western blotting", "format": "cell-based, human", "details": "HUVEC, 40 or 80 μM Dynasore, VEGF-A 50 ng/ml"}, "DKO MECs": {"system": "DKO MECs", "test": "BrdU labeling of mouse endothelial cells", "format": "cell-based", "method": "BrdU labeling. BrdU labeling of Mouse Endothelial Cells. WT and DKO MECs were grown in a 48-well plate until they reached 50% percent confluency. Cells were starved overnight and stimulated with growth factors or growth factors plus inhibitors for 6 h. BrdU labeling and detection kit (Roche) was then used to label the proliferating cells. Briefly, cells were incubated with BrdU labeling medium (1:500 diluted in medium) for 3 h. Cells were washed three times with wash buffer and fixed with ethanol for 20 min at −20° C. followed by washing the cells three times with wash buffer and incubated with 6M HCl/0.1% Triton for 30 minutes at room temperature. This was followed by six washes with PBS/0.1% Triton. Cells were blocked with PBS/0.3% Triton/3% BSA/3% donkey serum for 30 min at room temperature followed by incubation with anti-BrdU working solution for 30 minutes at 37° C. After three washes with wash buffer cells were again incubated with donkey anti-mouse Ig-fluorescein for 30 minutes at 37° C. After washing the cells three times with wash buffer they were stained with DAPI and visualized using Olympus Fluorescent microscope. Percentage of proliferating cells was calculated based on the ratio of BrdU-positive cells versus DAPI-positive cells."}, "retina angiogenesis": {"system": "retina angiogenesis", "test": "Retinal angiogenic sprouting in EC-iDKO P6 pups, isolectin B4 staining", "format": "in vivo, mice", "details": "IP/intraocular injection", "method": "Immunohistochemistry and immunofluorescence of tissue samples. Immunohistochemistry and immunofluorescence were performed as described with modifications (Chen et al., 1998; Chen et al., 2009). • E9/10 Hind Brain: Embryos were harvested at E9 or E10 and fixed. Hindbrain was harvested and processed for staining with anti-CD31 and donkey anti-rat Alex Fluor 488 secondary antibody. • P6 Skin: Wild-type or EC-iDKO pups were injected intraperitoneally with 5 mg/kg (body weight) of 4-hydroxytamoxifen (10 mg/ml of 4-Hydroxytamoxifen resuspended in 10% of ethanol and 90% of DMSO) per day from postnatal day 1 (P1) to P3. Pups were euthanized at P6 and skin from abdomen was harvested and processed for whole mount staining with anti-CD31 and donkey anti-rat Alexa Fluor 488 secondary antibody. • P6 Retina: Wild-type or EC-iDKO Pups were injected with 4-hydroxytamoxifen as described above per day from postnatal day 2 (P2) to P4. P6 pups were euthanized and whole eyes harvested. […]\nReceptor tyrosine kinase inhibitors injection. […] For western blot analysis, skin and heart tissues were collected from WT P6 pups injected either with DMSO or inhibitors and analyzed for phospho-Akt and total Akt."}, "[1]": {"details": "free acid; cited from earlier work"}, "[2]": {"details": "in vivo; cited from earlier work"}, "gliomas": {"system": "gliomas", "details": "given before, at the time of or after tumor implantation; cited from earlier work"}, "[3]": {"details": "cited from earlier work"}},
  "data": [
    {"smiles": "O=C(N/N=C/c1ccc(O)c(O)c1)c1cc2ccccc2cc1O", "note": "[Dynasore]", "values": [
      {"measurement": "total levels of VEGFR-2 and phosphorylation of VEGFR-2 and its downstream signaling effectors", "setting": "VEGFR-2", "result": "dramatically increased"}
    ]},
    {"smiles": "CC(C)c1cc(/C=C(\\C#N)C(=O)NCCCc2ccccc2)cc(C(C)C)c1O", "note": "[inhibitors to VEGFR-2]", "values": [
      {"measurement": "VEGF-increased proliferation of DKO MECs", "setting": "DKO MECs", "result": "abrogated"},
      {"measurement": "elevated angiogenic sprouting in EC-iDKO retina", "setting": "retina angiogenesis", "result": "reversed"}
    ]},
    {"smiles": "CC(C)(C)[N+]([O-])=Cc1ccc(S(=O)(=O)O)cc1S(=O)(=O)O", "note": "[2,4-ds PBN, 2,4-disulfonyl phenyl-tert-butyl nitrone]", "values": [
      {"measurement": "solubility in water", "setting": "[1]", "result": "greater than 1 gram/ml"},
      {"measurement": "efficacy as compared to PBN", "setting": "[2]", "result": "unexpected increase"},
      {"measurement": "potency as compared to PBN", "setting": "[2]", "result": "increase in potency"},
      {"measurement": "toxicity as compared to PBN", "setting": "[2]", "result": "marked and highly significant decrease"}
    ]},
    {"smiles": "CC(C)(C)[N+]([O-])=Cc1ccccc1", "note": "[PBN, phenyl N-tert-butyl nitrone]", "values": [
      {"measurement": "glioma tumor development", "setting": "gliomas", "result": "able to control tumor development"},
      {"measurement": "tissue distribution", "setting": "[3]; rat, in vivo", "result": "readily and rapidly distributed almost equally to all tissues"},
      {"measurement": "half-life", "setting": "[3]; rats", "result": "about 132 minutes"}
    ]}
  ]
}
